Measured values: patent US12685733B2, “Indole molecules and use thereof in the inhibition of DNA polymerases” (BioVentures, LLC, priority 2019, dated 2026)

Assays:
[1] = molecular target: T1, hpol λ (Homo sapiens, UniProt Q9UGP5); test: Fluorescence-based polymerase assay, other pol families; format: biochemical; conditions: 10 μM; 10 nM hpol λ (X-family)
T1 construct: hpol λ, residues 1-325; gift of Dr. Miguel Garcia-Diaz (Stony Brook University)
T1 sequence (Q9UGP5 242-575 limits assumed): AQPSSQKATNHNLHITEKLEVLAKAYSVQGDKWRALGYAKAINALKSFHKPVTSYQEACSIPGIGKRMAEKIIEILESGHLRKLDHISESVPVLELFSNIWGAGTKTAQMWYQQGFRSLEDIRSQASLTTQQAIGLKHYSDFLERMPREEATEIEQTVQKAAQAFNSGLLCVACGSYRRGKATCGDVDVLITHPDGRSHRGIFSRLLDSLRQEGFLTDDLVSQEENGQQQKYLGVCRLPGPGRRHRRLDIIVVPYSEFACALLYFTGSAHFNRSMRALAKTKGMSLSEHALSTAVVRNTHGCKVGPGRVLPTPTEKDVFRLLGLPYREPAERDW

[2] = tested on: hpol κ-deficient HAP-1 cells; test: Clonogenic survival assay; format: cell-based, human
Experimental: (§1) HAP-1 and hpol κ^KO cells were purchased from Horizons Discovery Group LLC (Cambridge, UK). The company generated the Hap1 cells using CRISPR-Cas9 technology and the elimination of kappa expression was confirmed by Sanger sequence genome editing. We further confirmed the elimination of hpol κ protein expression by Western blotting (data not shown). Hap1 cells were cultured in Iscove's modified Dulbecco's medium (IMDM; Invitrogen, CA, USA) supplemented with 10% (v/v) fetal bovine serum (FBS; Atlas Biologicals, CO, USA) and 1% (v/v) antibiotic/antimycotic solution (Sigma-Aldrich, MO, USA).T98G cells were purchased from ATCC (American Type Culture Collection, VA, USA). T98G cells were cultured in MEM (Minimum Essential Medium) (Invitrogen, CA, USA) supplemented with 10% (v/v) FBS (Fetal Bovine Serum, Atlas Biologicals, CO, USA) and antibiotic/antimycotic solution (1%, v/v) (Sigma-Aldrich, MO, USA). NT2 cells were kindly provided by Dr. Michael Borrelli (University of Arkansas for Medical Sciences, AR, USA). NT2 cells were cultured in DMEM/F12 (Dulbecco's Modified Eagle Medium) supplemented with 10% (v/v) FCS (Fetal Calf Serum) and antibiotic/antimycotic solution (1%) (Sigma-Aldrich, MO, USA).
(§2) To measure the clonogenic ability, cells were plated (500 cells per well) in 6-well dishes. In the case of HAP-1 cells, cells were treated the following day after plating, with temozolomide (TMZ) (0, 1, 5, 50, 125 and 250 μM) alone or in combination with UAMS-48 (0.1 and 0.5 μM) for 1 hour. In the case of T98G and NT2 cells, treatment was done on the following day of plating, with increasing concentrations of TMZ alone or in combination with UAMS-48 (50 nM) for 3 hrs. T98G and NT2 cells were treated with increasing concentrations of UAMS-48 for 3 hrs. After treatment, cells were cultured in fresh IMDM supplemented with 10% FBS for 10 days. The colonies were gently washed with 1×PBS, fixed with 3.7% (v/v) formaldehyde for 20 mins at RT and stained with crystal violet solution (Sigma-Aldrich, MO, USA) for 30 mins at RT.
(§3) The fixed crystal-violet stained colonies in each 6-well plate were examined under an EVOS XL Core imaging system (Thermo Fisher Scientific) under bright-field, and the colonies were inspected manually. […] Color images of each 6-well plate were captured and opened for processing using the Fiji version of the freely available software ImageJ. Setting the appropriate threshold for counting colonies for each cell type, corresponding to the respective radii calculated previously, the colonies were counted using the Colony Area plugin of ImageJ. Manual counting was performed on a few wells picked randomly, and the colony count so obtained was tallied with the number obtained using ImageJ, to ensure they matched reasonably. All experiments were performed in triplicate, and the colony number for each well was expressed as the mean (±standard deviation). The results were plotted to generate a dose response curve for TMZ treatment using the software Graphpad Prism, where the mean number of colonies was plotted along the Y-axis, and the TMZ concentration along the X-axis. Bar charts comparing the mean number of colonies as a function of the various conditions were also plotted for both cell types. Combination index values were calculated using the Chou-Talalay method (Chou 2010).

[3] = tested on: hpol κ-proficient HAP-1 cells; test: Clonogenic survival assay; format: cell-based, human
Experimental: as §1, §2, §3

[4] = tested on: T98G cells; test: Clonogenic survival assay; format: cell-based, human
[5] = tested on: NT2 cells; test: Clonogenic survival assay; format: cell-based, human; conditions: IAG-10 and TMZ in combination
[6] = tested on: T98G spheroids (GSC); test: GSC clonogenic survival assay; format: cell-based; conditions: 50 nM, 3 hours
Experimental: GSC clonogenic survival assay. Spheroids proficient and deficient in hpol κ were cultured for 12 days as described above before treating with PNR 7-48 (50 nM) for 3 hours. Spheroids were harvested, titrated into single cell populations and counted via trypan blue exclusion assay. Around 500 viable cells were plated per well in a 6 well dish and allowed to recover for 8-10 days in MEM with 10% FBS. Cells were fixed with 4% formaldehyde (v/v) for 30 min followed by staining with crystal violet (Sigma Aldrich, St. Louis, MO) for 30 min. Total number of colonies were counted using the EVOS microscope, with viable colonies consisting of 25 cells or more. This experiment was done in technical triplicate. As with spheroid growth, clonogenic survival was impeded for T98G cells lacking hpol κ activity (FIG. 11).

[7] = molecular target: T2, hpol κ (Homo sapiens, UniProt Q9UBT6); test: Gel-based primer extension assay; format: biochemical; set-up: hpol κ (residues 19-526); made in house; conditions: 10 μM; 1 nM hpol κ
T2 sequence (Q9UBT6 19-526): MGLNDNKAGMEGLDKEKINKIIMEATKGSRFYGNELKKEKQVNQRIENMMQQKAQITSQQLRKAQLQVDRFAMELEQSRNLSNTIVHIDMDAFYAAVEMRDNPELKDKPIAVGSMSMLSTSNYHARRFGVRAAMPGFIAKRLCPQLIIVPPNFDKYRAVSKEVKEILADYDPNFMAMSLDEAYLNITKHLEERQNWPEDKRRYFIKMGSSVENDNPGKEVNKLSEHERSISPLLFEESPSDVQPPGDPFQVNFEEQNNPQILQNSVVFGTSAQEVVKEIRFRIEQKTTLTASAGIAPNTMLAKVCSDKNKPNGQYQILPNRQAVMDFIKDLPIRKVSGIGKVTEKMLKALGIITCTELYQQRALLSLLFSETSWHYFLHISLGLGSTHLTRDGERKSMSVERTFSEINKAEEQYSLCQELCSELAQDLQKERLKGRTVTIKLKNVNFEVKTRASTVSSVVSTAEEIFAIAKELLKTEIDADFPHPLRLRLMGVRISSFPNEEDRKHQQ

## Cl.[H]/N=C(\N)NN=Cc1cn(C(=O)c2cccc3ccccc23)c2ccc(Cl)cc12 [IAG-10, (E)-2-((1-(1-naphthoyl)-5-chloro-1H-indol-3-y1)methylene)hydrazine-1-carboximidamide hydrochloride]
[1]
  polymerase activity relative to DMSO control: only hpol κ activity was inhibited
[2]; 0.5 μM IAG-10
  colony formation, compound alone: does not impair colony formation
[2]; TMZ + 0.5 μM IAG-10
  colony forming ability, co-treatment over TMZ alone: did not show any significant reduction in colony forming ability
[3]; 0.5 μM IAG-10
  colony formation, compound alone: does not impair colony formation
[3]; 250 μM TMZ + 0.5 μM IAG-10 co-treatment, 1 hour
  colonies formed relative to untreated cells: ~ 40%
[4]; IAG-10 50 nM + TMZ
  combination index (TMZ and IAG-10, Chou-Talalay): 0.09
[4]; IAG-10 50 nM along with TMZ, 3 hrs
  decrease of cell proliferation (clonogenic) compared to TMZ alone: ~ 10 fold
[4]; IAG-10 alone, concentrations above that used for combination
  decrease in GBM-derived cell proliferation compared to NT2 cells: ~ 2 fold
[5]
  colony formation ability, combination: did not exhibit changes in colony formation ability
[6]
  GSC differentiation: inhibit GSC differentiation
[7]
  polymerase activity relative to DMSO control: only hpol κ was inhibited
